Experiments:
[1] = biological target: T1, alkaline phosphatase-labeled DNA probe (Bos taurus, UniProt P19111); assay: Alkaline phosphatase-labeled DNA probe detection in membrane with and without BDMQ blocking step (Example XV); settings: for Detection limit (in picograms DNA) 5. min. exp.: five minute exposure 40 minutes after dioxetane addition; for Detection limit (in picograms DNA) 1 min. exp.: one minute exposure 77 minutes after dioxetane addition
T1 construct: purchased Tropix, Inc
Protocol: pBr 322 plasmid (4700 bp) was subjected to a nick translation process using a Trans-Light kit (Tropix, Inc., Bedford, Mass.) to generate a mixture of biotinylated single stranded polynucleotides of 200-2000 bps in length.
This mixture was dotted onto a dry BIODYNE A membrane as five parallel columns of dots of the following concentrations:
The membrane was subjected to ultraviolet irradiation (UVP Mineral Light; UVP, San Gabriel, Calif.) for 3 minutes to fix the DNA to the surface of the membrane, then air dried. Next, the membrane was blocked in 0.2% casein/0.1% Tween 20 detergent in PBS for 1 hour, following which 1/5000 diluted avidin-alkaline phosphatase conjugate (Tropix, Inc.) in 0.2% casein in PBS was added. The membrane was then incubated for 30 minutes, washed three times (for 5 minutes each time) in 0.2% casein/0.1% Tween 20 detergent in PBS and washed once for five minutes in aqueous 0.1M diethanolamine containing 1 mm magnesium chloride and 0.02% sodium azide, pH 10.0 (substrate buffer).
Next, the five columns of rows of dots 1-5 were individually cut from the membrane ("strips 1-5"), as were the five columns of rows of dots 6-10 ("strips 6-10"). Strips 1-5 were washed with substrate buffer for 30 minutes. Strips 6-10 were blocked in 0.1% BDMQ in substrate buffer for 30 minutes. Both sets of strips were then incubated for 5 minutes in substrate buffer, then individually incubated for five minutes in aqueous solutions (0.25 mM) of 1,2-dioxetanes as indicated below:
All strips were then placed in camera luminometers and exposed on Polaroid Type 612 instant black and white film.

[2] = biological target: T2, alkaline phosphatase (calf intestine; Biozyme) (Bos taurus, UniProt P19111); assay: Total dephosphorylation, chemiluminescence decay (Example XIII); format: biochemical; settings: 30° C., carbonate/bicarbonate buffer
T2 construct: purchased Biozyme; host or cells: calf intestine
Protocol: A comparison of the total luminescence emission from AMPPD and from the corresponding 1,2-dioxetanes whose adamant-2'-ylidene groups are monosubstituted with hydroxy (A and B isomers), chloro and bromo groups was made by carrying out total dephosphorylation experiments on each of these compounds.
An aqueous solution of the 1,2-dioxetane (4.0 mm) in 0.05M sodium carbonate/sodium bicarbonate containing 1 mM magnesium chloride was prepared and then equilibrated at 30° C. Ten μl of a 7.64×10M aqueous solution of alkaline phosphatase (calf intestine; Biozyme) was then added, and the chemiluminescence from the resulting solution was recorded using a Turner Model 20E luminometer (Turner Instruments; Sunnyvale, Calif.).
The rates of chemiluminescence decay for each of the five compounds in question, expressed in relative light units (RLU's) per minute, are given in the following table.

alkaline phosphatase [3] = biological target: T3, alkaline phosphatase (Bos taurus, UniProt P19111); assay: Alkaline phosphatase detection limits, Wilj microtiter plate luminometer (Example XXVI); format: biochemical; settings: 23 MINUTE INCUBATION
alkaline phosphatase [4] = biological target: T3, alkaline phosphatase; assay: Alkaline phosphatase detection limits, LabSystems Luminoskan (Example XXV); format: biochemical
Protocol: The detection means for alkaline phosphatase with different chemiluminescent 1,2-dioxetane substrates were determined as follows: Duplicates of serial dilutions (1 to 3) of alkaline phosphates were incubated at room temperature with 0.4 mM dioxetane in 0.1 M diethanolamine, 1 mM MgCl2, pH 10.0, containing 1 mg/ml of either of the polymeric enhancers Enhancer 1 or Enhancer 2, in […].
Following either a 5 or a 20 minute incubation with a substrate, the chemiluminescence intensity was measured as a 5 second integrated Relative Light Units (RLU) and plotted as in FIG. 10. […] The alkaline phosphatase concentrations at twice background were used as the detection limits in Table 5.
The luminometer used in this example was LabSystems Luminoskan microtiter plate reader.

[5] = BDMQ blocking step, listed as OH-Adamant-2'-ylidene (B isomer)
[6] = SAPPHIRE II, 5 MINUTE INCUBATION
[7] = SAPPHIRE II, 20 MINUTE INCUBATION
[8] = BDMQ blocking step, listed as OH-Adamant-2'-ylidene (A isomer)

T3 sequence (P19111 20-506 limits assumed): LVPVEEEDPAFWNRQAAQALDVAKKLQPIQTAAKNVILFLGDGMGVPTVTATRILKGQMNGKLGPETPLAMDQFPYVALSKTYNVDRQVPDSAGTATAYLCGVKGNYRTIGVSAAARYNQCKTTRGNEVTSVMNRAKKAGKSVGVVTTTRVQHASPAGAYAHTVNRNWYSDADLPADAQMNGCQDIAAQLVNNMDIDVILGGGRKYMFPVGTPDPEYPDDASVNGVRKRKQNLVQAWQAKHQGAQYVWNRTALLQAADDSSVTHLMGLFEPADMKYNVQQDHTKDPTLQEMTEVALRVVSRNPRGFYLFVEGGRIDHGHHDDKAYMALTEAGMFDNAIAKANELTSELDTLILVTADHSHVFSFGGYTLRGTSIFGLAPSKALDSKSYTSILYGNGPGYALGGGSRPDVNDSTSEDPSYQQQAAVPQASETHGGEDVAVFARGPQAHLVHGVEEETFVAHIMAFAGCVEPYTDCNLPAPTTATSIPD
T2 sequence (P19111 20-506 limits assumed): as above
T1 sequence (P19111 20-506 limits assumed): as above
T1 sequence (P02701 25-152 partner): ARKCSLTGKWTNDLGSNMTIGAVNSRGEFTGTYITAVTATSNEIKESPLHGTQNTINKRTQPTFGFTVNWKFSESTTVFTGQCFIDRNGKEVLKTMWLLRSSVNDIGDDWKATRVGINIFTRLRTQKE

Compound	Detection limit (in picograms DNA) 5. min. exp. ([1]; no BDMQ blocking step) [picograms DNA]	Alkaline phosphatase detection limit (at 2× background) (alkaline phosphatase [3]; SAPPHIRE II) [pM]	Alkaline phosphatase detection limit (at 2× background) (alkaline phosphatase [3]; SAPPHIRE) [pM]	Alkaline phosphatase detection limit (at 2× background) (alkaline phosphatase [4]; [6]) [pM]	Alkaline phosphatase detection limit (at 2× background) (alkaline phosphatase [4]; [7]) [pM]	Alkaline phosphatase detection limit (at 2× background) (alkaline phosphatase [4]; SAPPHIRE, 5 MINUTE INCUBATION) [pM]	Alkaline phosphatase detection limit (at 2× background) (alkaline phosphatase [4]; SAPPHIRE, 20 MINUTE INCUBATION) [pM]	Detection limit (in picograms DNA) 5. min. exp. ([1]; BDMQ blocking step) [picograms DNA]	Detection limit (in picograms DNA) 1 min. exp. ([1]; BDMQ blocking step) [picograms DNA]	Detection limit (in picograms DNA) 1 min. exp. ([1]; no BDMQ blocking step) [picograms DNA]	Total Decay Time [2] [min]	Decay Rate I ([2]; RLU's per minute) [RLU's per minute]	Decay Rate II ([2]; RLU's per minute) [RLU's per minute]	further results
COC1(c2cccc(OP(=O)(O)O)c2)OOC12C1CC3CC2CC(O)(C3)C1 (single isomer, unassigned) [B-OH-AMPPD, disodium 3-(4-methoxyspiro-[1,2-dioxetane-3,2'-(5'-hydroxy)tricyclo[3.3.1.1^3,7]decan]-4-yl)phenyl phosphate]	5.000													Detection limit (in picograms DNA) 5. min. exp. [1, 5]: 1.250 picograms DNA; Detection limit (in picograms DNA) 1 min. exp. [1, 5]: 5.000 picograms DNA; Detection limit (in picograms DNA) 1 min. exp. ([1]; no BDMQ blocking step, listed as OH-Adamant-2'-ylidene (B isomer)): 20.000 picograms DNA; Total Decay Time ([2]; listed as OH-Adamant-2'-ylidene (B isomer)): 10 min; Decay Rate I ([2]; RLU's per minute, listed as OH-Adamant-2'-ylidene (B isomer)): 1.5 RLU's per minute
COC1(c2cccc(OP(=O)(O)O)c2)OOC12C1CC3CC2CC(Cl)(C3)C1 (stereo not drawn) [Cl-AMPPD, disodium 3-(4-methoxyspiro-[1,2-dioxetane-3,2'-(5'-chloro)tricyclo[3.3.1.1^3,7]decan]-4-yl) phenyl phosphate]	1.250	0.00021	0.000705	0.0008	0.00043	0.0014	0.0005	0.313	0.313	1.250	15	1.2	5.5	
COC1(c2cccc(OP(=O)(O)O)c2)OOC12C1CC3CC(C1)CC2C3 (stereo not drawn) [AMPPD, 3-(4-methoxyspiro[1,2-dioxetane-3,2'-triyclo[3.3.1.1^3,7]decan]-4-yl)phenyl phosphate, reference compound]	2.500	0.0013	0.0019	0.0025	0.0011	0.0038	0.0014	0.625	1.250	5.000	60	0.1	0.3	Decay Rate III ([2]; RLU's per minute): 0.8 RLU's per minute
COC1(c2cccc(OP(=O)(O)O)c2)OOC12C1CC3CC2CC(O)(C3)C1 (single isomer, unassigned) [A-OH-AMPPD, disodium 3-(4-methoxyspiro-[1,2-dioxetane-3,2'-(5'-hydroxy)tricyclo[3.3.1.1^3,7]decan]-4-yl)phenyl phosphate]	5.000	0.0014	0.0015	0.0014	0.00031	0.0031	0.0011							Detection limit (in picograms DNA) 5. min. exp. [1, 8]: 0.625 picograms DNA; Detection limit (in picograms DNA) 1 min. exp. [1, 8]: 2.500 picograms DNA; Detection limit (in picograms DNA) 1 min. exp. ([1]; no BDMQ blocking step, listed as OH-Adamant-2'-ylidene (A isomer)): 10.000 picograms DNA; Total Decay Time ([2]; listed as OH-Adamant-2'-ylidene (A isomer)): 9 min; Decay Rate I ([2]; RLU's per minute, listed as OH-Adamant-2'-ylidene (A isomer)): 1.3 RLU's per minute
